Experimental data published in patent US9029362B2, “Iminothiadiazine dioxide compounds as brace inhibitors, compositions, and their use” (Merck Sharp & Dohme Corp., priority 2009, dated 2015).
Like-named read-outs stand apart in the source and are kept apart here. Values belong to the molecule of their own block, whether it stands above or below them.

Legend:
[1] = Solution stability, Example A (pH 7.4 phosphate buffer/MeOH, LC/MS); format: physicochemical
Procedure: A 1.05 mg/mL stock solution (5 mL) of Ex. 45 in MeOH was prepared. From the stock solution was taken out 1.25 mL and diluted to 25 mL with the addition of 23.75 mL of 10 mM phosphate buffer (pH 7.4)/MeOH (70/30 v/v). This new solution was split into three. One solution was incubated at 4° C., another incubated at 25° C. and the third incubated at 40° C. Each solution was analyzed by LC/MS after day 1, day 2 and day 6 and compared to a standard calibration curve for Ex. 45.
In the following study, the solution stability of the compound of Example 45 was measured and compared to that of Compound Z. The compound of Example 45 is an iminothiadiazine dioxide compound of the invention. Compound Z is the corresponding iminopyrimidinone compound. The structures of the compound of Example 45 and of Compound Z are shown below. Studies were performed in aqueous pH 7.4 buffer containing methanol at 4° C., 25° C. and 40° C.

[2] = Solution stability, Example B (pH 7.4 phosphate buffer/acetonitrile, 25° C., LC/MS); format: physicochemical; details: pH 7.4 buffer at 25° C., after 6 days
Procedure: Stock solutions of the tested compounds were prepared by dissolving about 3 mg of each compound in 3 mL of acetonitrile. Standards for test compounds were prepared by diluting 1 mL of the stock solution with an additional 4 mL of acetonitrile. These standards were stored at 4° C. Samples were prepared by diluting 1 mL of the stock solution with 4 mL of 50 mM pH 7.4 phosphate buffer. These samples were stored at 25° C. in the absence of light. Standards and samples were analyzed by LC/MS initially and at day 1, day 4, and day 6.
HPLC Conditions: • Mobile phase A: 10 mM pH 5 ammonium acetate buffer: methanol (90:10) • Mobile phase B: 10 mM pH 5 ammonium acetate buffer: methanol (10:90)
Column: Zorbax SB-Phenyl 4.6×50 mm, 1.8 μm • Column temperature: 40° C. • Flow: 0.8 mL/min. • Gradient:
• Detectors: UV at 220 nm and 236 nm
MS, ES ionization, positive mode, for identification only at final time point.
The terms reported in the tables below have the following meanings:
Area % is the integration of peak from HPLC as reported by Waters Empower II software.
RRT is the relative retention time of new product compared to the standard of the test compound.
In the following study, the solution stability of the compound of Example 47 was measured and compared to that of Compound Y. The compound of Example 47 is an iminothiadiazine dioxide compound of the invention. […]

[3] = molecular target: soluble human BACE1 catalytic domain (Homo sapiens (Human), UniProt P56817); assay: BACE1 HTRF FRET Assay; format: biochemical; details: about values; read-out: Ki value in BACE-1 assay
Sequence of soluble human BACE1 catalytic domain (P56817 75-416): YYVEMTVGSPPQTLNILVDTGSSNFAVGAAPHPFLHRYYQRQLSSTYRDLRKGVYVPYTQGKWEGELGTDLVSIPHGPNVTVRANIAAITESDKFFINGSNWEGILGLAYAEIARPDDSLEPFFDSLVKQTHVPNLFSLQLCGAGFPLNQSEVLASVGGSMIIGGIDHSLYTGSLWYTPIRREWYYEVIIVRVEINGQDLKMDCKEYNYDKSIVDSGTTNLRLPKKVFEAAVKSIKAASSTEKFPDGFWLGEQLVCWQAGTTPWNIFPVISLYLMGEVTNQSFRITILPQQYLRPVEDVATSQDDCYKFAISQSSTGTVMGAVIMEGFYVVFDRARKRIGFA

[4] = test system: rat cortex Aβ40; assay: Cortical Aβ40 in rats after oral dose (Luminex immunoassay); format: in vivo; details: 3 h after a 10 mg/kg oral dose, relative to vehicle cohort; for Change in rat cortex Aβ40 (Iminopyrimidinone): iminopyrimidinone analog
Procedure: Male CD rats (˜100 g; Crl:CD(SD); Charles River Laboratories, Kingston, N.Y.) were group housed and acclimated to the vivarium for 5-7 days prior to use in a study. Compounds were formulated in 20% hydroxypropyl-β-cyclodextrin and administered orally with a dosing volume of 5 ml/kg for rats. Three h after drug administration, rats were euthanized with excess CO2. The brain was removed from the skull and immediately frozen on dry ice. All tissues were stored at −70° C. until Aβ quantification.
Ab585 was labeled with biotin (b-Ab585) by first dialyzing the antibody sample extensively versus PBS (pH 7.8) to remove impurities, followed by dilution to between 1 and 2 mg/mL protein concentration. EZ-Link Sulfo-NHS-LC-Biotin (Pierce) was dissolved in PBS (pH 7.8) at a concentration of 1 mg/mL immediately prior to use. Ab585 was labeled with EZ-Link Sulfo-NHS-LC-biotin using a 10:1 biotin:antibody ratio by incubation at room temperature for 1 hour. The labeling reaction was quenched by addition of 1.0 M glycine to a final concentration of 0.1 M followed by 10 minute incubation at room temperature. Glycine was removed by extensive dialysis versus PBS.
The antibody was coupled to the beads using the Bio-Plex Amine Coupling Kit (Bio-Rad) as per the manufacturer's recommendations.
Rat brains were thawed briefly at 37° C. and both mid- and hindbrain regions were removed. The remaining material, consisting primarily of cortex (−800 mg) was carried through the guanidine extraction procedure. Cortices were added to a 2 ml BioPur tube (Eppendorf) along with a 6.35 mm chrome-coated steel ball and 1.0 ml of sucrose homogenization buffer (20 mM HEPES [pH 7.5], 50 mM KCl, 50 mM sucrose, 2 mM EDTA, 2 mM EGTA supplemented with complete protease inhibitors [Roche, EDTA-free]). Samples were then homogenized by agitation for 1.5 min at 30 cylces/sec in a MM300 tissue mixer (Retsch®). The resulting cortical homogenate was extracted with guanidine-HCl by mixing 67 μl of homogenate with 133 μl of 5 M Guanidine HCl, 50 mM Tris HCl (pH 8.0). To maximize the efficiency of Aβ extraction, samples were vortexed and then sonicated for 2 minutes in an ice bath using an Ultrasonics XL cup horn sonicator at a power setting of 8 (Heat Systems, Inc.). Insoluble material was removed by ultracentrifugation using a using a TLA-55 rotor in a TL-100 benchtop centrifuge (Beckman) at 100,000×g for 30 minutes. The resulting supernatant was then either diluted 1:10 in 5 M guanidine HCl, 0.05 M Tris HCl (pH 8.0) for protein analysis (BCA protein assay, Pierce Biochemicals) or assayed neat for Aβ340 levels. The Luminex rodent A1340 assay was performed as follows. First, 96 well filter binding plates (Millipore, catalogue #MSBVN12) were wetted with 100 μl of 1×LAβ40 buffer (0.05 M HEPES [pH 7.5], 0.2% BSA, 0.2% Tween-20, 0.15 M NaCl) by vacuum filtration on a Millipore 96-well manifold. […] Guanidine HCl was added to synthetic rodent Aβ40 standards in order to control for the effect of guanidine in brain extracts on the assay performance. Ten microliters of cortical extract, rodent Aβ40 standards or cortical extract from amyloid precursor protein knockout mice (to define background immunoreactivity) was added to each well. Plates were covered and incubated overnight at 4° C. Following the incubation, wells were cleared by vacuum and washed twice with 100 μl of 1×LAβ40 buffer on a Millipore manifold. Phycoerythrin-conjugated streptavidin (PE-strepavidin, BioRad) for detection of bound b-Ab585 was diluted 100-fold in 1×LA340 buffer and 50 μl was added to each well and incubated for 1 hour at room temperature with shaking.

[5] = Caco-2 Bi-directional Permeability; format: in vitro ADME; details: human; for Papp A→B at 2 h: Caco-2, pH 7.4, apical to basolateral, 2-hr incubation, read-out: Caco-2 AP → BL (nm/s) (Iminothiadiazine Dioxide)
Procedure: (§1) The bi-directional permeability with efflux potential of selected compounds of the invention vs. otherwise structurally identical iminopyrimidinones (collectively referred to as test compounds, shown in the table below) were assessed using Caco-2 cell line. The Caco-2 cells were maintained in DMEM (Dulbecco's Modified Eagle Medium) containing 10% fetal bovine serum, 1% non-essential amino acids, 2 mM L-glutamine, and 1% penicillin-streptomycin in an incubator at ˜37° C. in an atmosphere of 5% CO2 and about 90% relative humidity. The cell culture medium was changed three times weekly. Caco-2 cell monolayers were grown on polyethylene terephthalate filters using 24-well BD Falcon™ Cell Culture Insert Plates (0.33 cm^2 insert area, 1 μm pore size; BD BioSciences, Bedford, Mass.). The culture medium of the plate was changed every other day until used for the transport experiment (21-28 days post seeding).
(§2) The transport buffer (TM) was Hank's balanced salt solution (HBSS) with 10 mM HEPES and 25 mM glucose (pH 7.4) for dosing and TM with 4% bovine serum albumin for receiver (pH 7.4). The bi-directional permeability of the test compounds were tested at concentrations of 1, 10 and 100 μM was measured in triplicate with 2-hr incubation. The cell monolayer integrity was monitored with pre- and post-experimental trans-epithelial electrical resistance and post-experimental Lucifer Yellow (LY) permeability with 1 hr incubation.
(§3) The apparent permeability, recovery and efflux ratio values were calculated using the following equations:

[6] = molecular target: purified human autoBACE-2 (Homo sapiens (Human), UniProt Q9Y5Z0); assay: BACE-2 Assay (BACE-HTRF assay); format: biochemical
Sequence of purified human autoBACE-2 (Q9Y5Z0 63-518): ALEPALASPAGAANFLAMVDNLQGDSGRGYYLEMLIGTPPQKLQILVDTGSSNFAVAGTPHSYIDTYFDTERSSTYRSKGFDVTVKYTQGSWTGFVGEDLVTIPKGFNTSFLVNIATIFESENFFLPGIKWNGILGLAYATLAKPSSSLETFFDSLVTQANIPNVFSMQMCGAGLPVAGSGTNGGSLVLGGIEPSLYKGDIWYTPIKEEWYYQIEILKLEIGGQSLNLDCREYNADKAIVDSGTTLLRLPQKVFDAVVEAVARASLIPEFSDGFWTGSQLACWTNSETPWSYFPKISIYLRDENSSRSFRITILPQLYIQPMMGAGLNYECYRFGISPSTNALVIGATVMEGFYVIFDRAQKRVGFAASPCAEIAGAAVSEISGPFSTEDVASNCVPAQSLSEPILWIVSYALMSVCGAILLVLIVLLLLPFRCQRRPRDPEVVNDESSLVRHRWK
Procedure: Inhibitor IC50s at purified human autoBACE-2 were determined in a time-resolved endpoint proteolysis assay that measures hydrolysis of the QSY7-[sequence]-Eu-amide FRET peptide substrate (BACE-HTRF assay). […] DMSO was present at 5% final concentration in the assay. Following laser excitation of sample wells at 320 nm, the fluorescence signal at 620 nm was collected for 400 ms following a 50 s delay on a RUBYstar HTRF plate reader (BMG Labtechnologies). Raw RFU data was normalized to maximum (1.0 nM BACE/DMSO) and minimum (no enzyme/DMSO)RFU values. […] The Ki values were calculated from the IC50 using the Cheng-Prusoff equation.

[7] = test system: Caco-2 cells; assay: Caco-2 Bi-directional Permeability; format: in vitro ADME; details: apical to basolateral, 2-hr incubation; for Caco-2 AP → BL (nm/s) (Iminopyrimidinone): iminopyrimidinone analog
Procedure: as §1, §2, §3

Structure (SMILES): CN1C(=N)N[C@](C)(c2cccs2)CS1(=O)=O [Example 19]
Ki [3]: ≥ 5 µM

Structure (SMILES): CN1C(=N)N[C@](C)(c2cc(NC(=O)c3ccc(F)cn3)ccc2F)CS1(=O)=O [Example 25]
Change in rat cortex Aβ40 (Iminothiadiazine Dioxide) [4]: −49% | Papp A→B at 2 h [5]: 128 nm/s

Structure (SMILES): CN1C(=N)N[C@](C)(c2cc(NC(=O)c3ccc(C(F)(F)F)cn3)ccc2F)CS1(=O)=O [Example 26]
Change in rat cortex Aβ40 (Iminothiadiazine Dioxide) [4]: −33% | Papp A→B at 2 h [5]: 89 nm/s

Structure (SMILES): CN1C(=N)N[C@](C)(c2cc(NC(=O)c3ccc(Cl)cn3)ccc2F)CS1(=O)=O [Example 34]
Change in rat cortex Aβ40 (Iminothiadiazine Dioxide) [4]: −51% | Papp A→B at 2 h [5]: 118 nm/s

Structure (SMILES): COc1cnc(C(=O)Nc2ccc(F)c([C@]3(C)CS(=O)(=O)N(C)C(=N)N3)c2)cn1 [Example 40ai]
Change in rat cortex Aβ40 (Iminothiadiazine Dioxide) [4]: −51% | Papp A→B at 2 h [5]: 133 nm/s

Structure (SMILES): COc1cnc(C(=O)Nc2cc(F)c(F)c([C@]3(C)CS(=O)(=O)N(C)C(=N)N3)c2)cn1 [Example 40di]
Change in rat cortex Aβ40 (Iminothiadiazine Dioxide) [4]: −38% | Papp A→B at 2 h [5]: 136 nm/s

Structure (SMILES): CN1C(=N)N[C@](C)(c2cc(NC(=O)c3ccc(S(C)(=O)=O)cn3)cc(F)c2F)CS1(=O)=O [Example 40do]
Ki ([6]; about values): ≥ 0.5 µM

Structure (SMILES): CN1C(=N)N[C@](C)(c2cc(NC(=O)c3c(F)cncc3C(F)(F)F)cc(F)c2F)CS1(=O)=O [Example 40ex]
Ki ([6]; about values): ≥ 0.5 µM

Structure (SMILES): Cc1cnc(C(=O)Nc2cc([C@]3(C)CS(=O)(=O)N(C)C(=N)N3)ccn2)cn1 [Example 40x]
Ki [3]: ≥ 5 µM

Structure (SMILES): CC#Cc1cncc(-c2cc(Cl)c([C@]3(C)CS(=O)(=O)N(C)C(=N)N3)s2)c1 [Example 52]
Papp A→B at 2 h [5]: 278 nm/s

Structure (SMILES): CC[C@H]1[C@@](C)(c2cc(F)ccc2F)NC(=N)N(C)S1(=O)=O [Example 98]
Ki [3]: ≥ 5 µM

Structure (SMILES): CN1C(=N)NC(C)(c2cc(NC(=O)N3CCCCC3)ccc2F)CS1(=O)=O (stereo not shown) [Example 160]
Ki [6]: ≥ 0.5 µM

Structure (SMILES): CN1C(=N)N[C@](C)(c2cc(NC(=O)N3CCOCC3)ccc2F)CS1(=O)=O [Example 161a]
Ki ([6]; about values): ≥ 0.5 µM

Structure (SMILES): CN1C(=N)N[C@](C)(c2c(F)ccc(NC(=O)c3ccc(F)cn3)c2F)CS1(=O)=O [Example 173]
Change in rat cortex Aβ40 (Iminothiadiazine Dioxide) [4]: −27% | Caco-2 AP → BL (nm/s) (Iminothiadiazine Dioxide) [7]: 126 nm/s

Structure (SMILES): CCc1cc2cc(F)c([C@]3(C)CS(=O)(=O)N(C)C(=N)N3)cc2[nH]1 [Example 189]
Ki [3]: ≥ 5 µM

Structure (SMILES): CN1C(=N)N[C@](C)(c2cc(NC(=O)c3ccc(Cl)cn3)ccc2F)CC1=O [drawing 705, reference compound]
Change in rat cortex Aβ40 (Iminopyrimidinone) [4]: −19%

Structure (SMILES): CN1C(=N)N[C@](C)(c2cc(NC(=O)c3ccc(C(F)(F)F)cn3)ccc2F)CC1=O [drawing 707, reference compound]
Change in rat cortex Aβ40 (Iminopyrimidinone) [4]: 0%

Structure (SMILES): CN1C(=N)N[C@](C)(c2cc(NC(=O)c3ccc(F)cn3)ccc2F)CC1=O [drawing 709, reference compound]
Change in rat cortex Aβ40 (Iminopyrimidinone) [4]: −11%

Structure (SMILES): COc1cnc(C(=O)Nc2cc(F)c(F)c([C@]3(C)CC(=O)N(C)C(=N)N3)c2)cn1 [drawing 713, reference compound]
Change in rat cortex Aβ40 (Iminopyrimidinone) [4]: +5%

Structure (SMILES): CN1C(=N)N[C@](C)(c2cc(NC(=O)c3ccc(F)cn3)ccc2F)CC1=O [drawing 717, reference compound]
Change in rat cortex Aβ40 (Iminopyrimidinone) [4]: −3%

Structure (SMILES): CN1C(=N)N[C@](C)(c2cc(-c3cccc(C#N)c3)cs2)CC1=O [drawing 719, reference compound]
Change in rat cortex Aβ40 (Iminopyrimidinone) [4]: −5%

Second part, led by results:

Assay (Area %), degradation flag ([1]; pH 7.4, 4° C., 2 days): — ((—) stands for >20% degradation) | Assay (Area %), degradation flag ([1]; pH 7.4, 4° C., 6 days): — ((—) stands for >20% degradation) | Assay (Area %), degradation flag ([1]; pH 7.4, 25° C., 2 days): — ((—) stands for >20% degradation) | Assay (Area %), degradation flag ([1]; pH 7.4, 25° C., 6 days): — ((—) stands for >20% degradation) | Assay (Area %), degradation flag ([1]; pH 7.4, 40° C., 2 days): — ((—) stands for >20% degradation) | Assay (Area %), degradation flag ([1]; pH 7.4, 40° C., 6 days): — ((—) stands for >20% degradation) | hydrolysis product [2]: 12.45%
Structure (SMILES): CN1C(=N)N[C@](C)(c2cc(-c3cccc(C#N)c3)cs2)CC1=O [Compound Z]

Papp A→B at 2 h [5]: 151 nm/s
Structure (SMILES): Cc1ccc(C(=O)Nc2ccc(F)c([C@]3(C)CS(=O)(=O)N(C)C(=N)N3)c2)nc1 [Example 35]

Papp A→B at 2 h [5]: 54 nm/s
Structure (SMILES): Cc1cnc(C(=O)Nc2ccc(F)c([C@]3(C)CS(=O)(=O)N(C)C(=N)N3)c2)cn1 [Example 36]
Change in rat cortex Aβ40 (Iminothiadiazine Dioxide) [4]: −25%

Papp A→B at 2 h [5]: 226 nm/s
Structure (SMILES): CN1C(=N)N[C@](C)(c2cc(-c3cccc(C#N)c3)cs2)CS1(=O)=O [Example 45]

Papp A→B at 2 h [5]: 189 nm/s
Structure (SMILES): CN1C(=N)N[C@](C)(c2cc(-c3ccc(F)c(C#N)c3)cs2)CS1(=O)=O [Example 46]

Ki [3]: ≥ 5 µM
Structure (SMILES): CC1[C@@](C)(c2cccc(-c3cccc(C#N)c3)c2)NC(=N)N(C)S1(=O)=O (stereo partly shown) [Example 101]

Ki ([6]; about values): ≥ 0.5 µM
Structure (SMILES): CN1C(=N)N[C@](C)(c2cccc(Nc3ncccc3C#N)n2)CS1(=O)=O [Example 164]

Caco-2 AP → BL (nm/s) (Iminopyrimidinone) [7]: 0 nm/s
Structure (SMILES): CN1C(=N)N[C@](C)(c2cc(NC(=O)c3ccc(Cl)cn3)ccc2F)CC1=O [drawing 727, reference compound]

Caco-2 AP → BL (nm/s) (Iminopyrimidinone) [7]: 17 nm/s
Structure (SMILES): CN1C(=N)N[C@](C)(c2cc(NC(=O)c3ccc(C(F)(F)F)cn3)ccc2F)CC1=O [drawing 729, reference compound]

Caco-2 AP → BL (nm/s) (Iminopyrimidinone) [7]: 22 nm/s
Structure (SMILES): CN1C(=N)N[C@](C)(c2cc(NC(=O)c3ccc(F)cn3)ccc2F)CC1=O [drawing 731, reference compound]

Caco-2 AP → BL (nm/s) (Iminopyrimidinone) [7]: 65 nm/s
Structure (SMILES): COc1cnc(C(=O)Nc2cc(F)c(F)c([C@]3(C)CC(=O)N(C)C(=N)N3)c2)cn1 [drawing 735, reference compound]

Caco-2 AP → BL (nm/s) (Iminopyrimidinone) [7]: 25 nm/s | efflux ratio at 2 h ([5]; Caco-2, Papp BL to AP / Papp AP to BL, iminopyrimidinone analog): 6.1
Structure (SMILES): CN1C(=N)N[C@](C)(c2cc(NC(=O)c3ccc(F)cn3)ccc2F)CC1=O [drawing 739, reference compound]

Caco-2 AP → BL (nm/s) (Iminopyrimidinone) [7]: 174 nm/s
Structure (SMILES): CN1C(=N)N[C@](C)(c2cc(-c3cccc(C#N)c3)cs2)CC1=O [drawing 741, reference compound]

Caco-2 AP → BL (nm/s) (Iminopyrimidinone) [7]: 153 nm/s
Structure (SMILES): CC#Cc1cncc(-c2cc(Cl)c([C@]3(C)CC(=O)N(C)C(=N)N3)s2)c1 [drawing 745, reference compound]

Caco-2 AP → BL (nm/s) (Iminopyrimidinone) [7]: 11 nm/s
Structure (SMILES): Cc1cnc(C(=O)Nc2ccc(F)c([C@]3(C)CC(=O)N(C)C(=N)N3)c2)cn1 [reference compound]

Caco-2 AP → BL (nm/s) (Iminopyrimidinone) [7]: 0 nm/s
Structure (SMILES): Cc1ccc(C(=O)Nc2ccc(F)c([C@]3(C)CC(=O)N(C)C(=N)N3)c2)nc1 [reference compound]

Caco-2 AP → BL (nm/s) (Iminopyrimidinone) [7]: 136 nm/s
Structure (SMILES): CN1C(=N)N[C@](C)(c2cc(-c3ccc(F)c(C#N)c3)cs2)CC1=O [reference compound]
